Laboratory results published in PubChem BioAssay (NCI).
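All cell lines were grown in 96-well plates and treated with compound for 48 hours. TGI: concentration producing complete growth inhibition.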

Experiments:
Assay in all cases: inhibition of tumour cell growth, NCI panel, 48 h
786-0 renal = tested on: 786-0 renal
A498 renal = tested on: A498 renal
A549 NSCLC = tested on: A549 NSCLC
ACHN renal = tested on: ACHN renal
BT-549 breast = tested on: BT-549 breast
CAKI-1 renal = tested on: CAKI-1 renal
COLO 205 colon = tested on: COLO 205 colon
DU-145 prostate = tested on: DU-145 prostate
EKVX NSCLC = tested on: EKVX NSCLC
HCC-2998 colon = tested on: HCC-2998 colon
HCT-116 colon = tested on: HCT-116 colon
HCT-15 colon = tested on: HCT-15 colon
HOP-62 NSCLC = tested on: HOP-62 NSCLC
HOP-92 NSCLC = tested on: HOP-92 NSCLC
HS 578T breast = tested on: HS 578T breast
HT29 colon = tested on: HT29 colon
IGROV1 ovarian = tested on: IGROV1 ovarian
K-562 leukemia = tested on: K-562 leukemia
KM12 colon = tested on: KM12 colon
M14 melanoma = tested on: M14 melanoma
MALME-3M melanoma = tested on: MALME-3M melanoma
MCF7 breast = tested on: MCF7 breast
MDA-MB-231 breast = tested on: MDA-MB-231 breast
MDA-MB-435 = tested on: MDA-MB-435
MDA-N = tested on: MDA-N
MOLT-4 leukemia = tested on: MOLT-4 leukemia
NCI-H23 lung = tested on: NCI-H23 lung
NCI-H460 lung = tested on: NCI-H460 lung
NCI-H522 lung = tested on: NCI-H522 lung
NCI/ADR-RES ovarian = tested on: NCI/ADR-RES ovarian
OVCAR-3 ovarian = tested on: OVCAR-3 ovarian
OVCAR-4 ovarian = tested on: OVCAR-4 ovarian
OVCAR-5 ovarian = tested on: OVCAR-5 ovarian
OVCAR-8 ovarian = tested on: OVCAR-8 ovarian
PC-3 prostate = tested on: PC-3 prostate
RPMI-8226 leukemia = tested on: RPMI-8226 leukemia
RXF 393 renal = tested on: RXF 393 renal
SF-268 CNS = tested on: SF-268 CNS
SF-295 CNS = tested on: SF-295 CNS
SK-MEL-2 melanoma = tested on: SK-MEL-2 melanoma
SK-MEL-28 melanoma = tested on: SK-MEL-28 melanoma
SK-MEL-5 melanoma = tested on: SK-MEL-5 melanoma
SK-OV-3 ovarian = tested on: SK-OV-3 ovarian
SNB-19 CNS = tested on: SNB-19 CNS
SNB-75 CNS = tested on: SNB-75 CNS
SW-620 colon = tested on: SW-620 colon
T-47D breast = tested on: T-47D breast
TK-10 renal = tested on: TK-10 renal
U251 CNS = tested on: U251 CNS
UACC-257 melanoma = tested on: UACC-257 melanoma
UACC-62 melanoma = tested on: UACC-62 melanoma
UO-31 renal = tested on: UO-31 renal
CCRF-CEM leukemia = tested on: CCRF-CEM leukemia
HL-60(TB) leukemia = tested on: HL-60(TB) leukemia
LOX IMVI melanoma = tested on: LOX IMVI melanoma
NCI-H226 lung = tested on: NCI-H226 lung
SF-539 CNS = tested on: SF-539 CNS
SN12C renal = tested on: SN12C renal

N#CC(Cc1ccccc1)N(CCC1=CCCCC1)Cc1ccccc1 (stereo not drawn)
TGI (786-0 renal): > 100 µM | TGI (A498 renal): > 100 µM | TGI (A549 NSCLC): > 100 µM | TGI (ACHN renal): > 100 µM | TGI (BT-549 breast): > 100 µM | TGI (CAKI-1 renal): > 100 µM | TGI (COLO 205 colon): 66.4 µM | TGI (DU-145 prostate): > 100 µM | TGI (EKVX NSCLC): > 100 µM | TGI (HCC-2998 colon): > 100 µM | TGI (HCT-116 colon): > 100 µM | TGI (HCT-15 colon): > 100 µM | TGI (HOP-62 NSCLC): > 100 µM | TGI (HOP-92 NSCLC): > 100 µM | TGI (HS 578T breast): > 100 µM | TGI (HT29 colon): > 100 µM | TGI (IGROV1 ovarian): > 100 µM | TGI (K-562 leukemia): > 100 µM | TGI (KM12 colon): > 100 µM | TGI (M14 melanoma): > 100 µM | TGI (MALME-3M melanoma): > 100 µM | TGI (MCF7 breast): > 100 µM | TGI (MDA-MB-231 breast): > 100 µM | TGI (MDA-MB-435): 91.1 µM | TGI (MDA-N): > 100 µM | TGI (MOLT-4 leukemia): 90.6 µM | TGI (NCI-H23 lung): > 100 µM | TGI (NCI-H460 lung): > 100 µM | TGI (NCI-H522 lung): 68 µM | TGI (NCI/ADR-RES ovarian): > 100 µM | TGI (OVCAR-3 ovarian): > 100 µM | TGI (OVCAR-4 ovarian): > 100 µM | TGI (OVCAR-5 ovarian): > 100 µM | TGI (OVCAR-8 ovarian): > 100 µM | TGI (PC-3 prostate): > 100 µM | TGI (RPMI-8226 leukemia): 63.5 µM | TGI (RXF 393 renal): > 100 µM | TGI (SF-268 CNS): > 100 µM | TGI (SF-295 CNS): > 100 µM | TGI (SK-MEL-2 melanoma): > 100 µM | TGI (SK-MEL-28 melanoma): > 100 µM | TGI (SK-MEL-5 melanoma): 51.9 µM | TGI (SK-OV-3 ovarian): > 100 µM | TGI (SNB-19 CNS): > 100 µM | TGI (SNB-75 CNS): > 100 µM | TGI (SW-620 colon): > 100 µM | TGI (T-47D breast): > 100 µM | TGI (TK-10 renal): > 100 µM | TGI (U251 CNS): > 100 µM | TGI (UACC-257 melanoma): > 100 µM | TGI (UACC-62 melanoma): > 100 µM | TGI (UO-31 renal): > 100 µM

CCOC(=O)c1cc2/c(=C\c3ccc(N(C)C)cc3)c3ccccc3n2[n+]1C
TGI (786-0 renal): 15 µM | TGI (A498 renal): 27.7 µM | TGI (A549 NSCLC): > 40 µM | TGI (ACHN renal): 20.4 µM | TGI (BT-549 breast): 7.11 µM | TGI (CAKI-1 renal): 15.3 µM | TGI (CCRF-CEM leukemia): > 24.6 µM | TGI (COLO 205 colon): 1.42 µM | TGI (DU-145 prostate): 17.4 µM | TGI (EKVX NSCLC): 21.5 µM | TGI (HCC-2998 colon): 10 µM | TGI (HCT-116 colon): 11.1 µM | TGI (HCT-15 colon): 31.9 µM | TGI (HL-60(TB) leukemia): 2.37 µM | TGI (HOP-92 NSCLC): 14.9 µM | TGI (HT29 colon): 12.7 µM | TGI (K-562 leukemia): > 58 µM | TGI (KM12 colon): 1.4 µM | TGI (LOX IMVI melanoma): 3.78 µM | TGI (M14 melanoma): 15.2 µM | TGI (MCF7 breast): 27.9 µM | TGI (MDA-MB-231 breast): 18.9 µM | TGI (MDA-MB-435): 11.5 µM | TGI (MDA-N): 15.3 µM | TGI (MOLT-4 leukemia): > 23.4 µM | TGI (NCI-H226 lung): 24.6 µM | TGI (NCI-H23 lung): 12.3 µM | TGI (NCI-H460 lung): 12.6 µM | TGI (NCI/ADR-RES ovarian): > 100 µM | TGI (OVCAR-3 ovarian): 0.581 µM | TGI (OVCAR-4 ovarian): 13.7 µM | TGI (OVCAR-5 ovarian): 20.4 µM | TGI (OVCAR-8 ovarian): 36.1 µM | TGI (PC-3 prostate): 12.7 µM | TGI (RXF 393 renal): 4.78 µM | TGI (SF-268 CNS): 19.7 µM | TGI (SF-295 CNS): 16.1 µM | TGI (SF-539 CNS): 4.02 µM | TGI (SK-MEL-2 melanoma): 4.74 µM | TGI (SK-MEL-28 melanoma): 14 µM | TGI (SK-MEL-5 melanoma): 4.04 µM | TGI (SK-OV-3 ovarian): 16.3 µM | TGI (SN12C renal): 14.4 µM | TGI (SNB-19 CNS): 15.6 µM | TGI (SW-620 colon): 13.1 µM | TGI (T-47D breast): 24.6 µM | TGI (TK-10 renal): 21.9 µM | TGI (U251 CNS): 11.8 µM | TGI (UACC-257 melanoma): 11.8 µM | TGI (UACC-62 melanoma): 14.2 µM | TGI (UO-31 renal): 19.3 µM
